Reference: patent US10865216B2, “Tricyclic Gyrase inhibitors” (MERCK SHARP & DOHME CORP., priority 2012, dated 2020)
Values after ≈ are worked out from the molar mass of the structure shown.

How the values were obtained:
[1] = tested on: S. aureus ATCC 13709; test: MIC, S. aureus ATCC 13709; type: cell-based; conditions: for MIC: Staphylococcus aureus, ATCC13709, S. aureus, read-out: MIC Sa
[2] = tested on: E. coli ATCC 25922; test: MIC, E. coli ATCC 25922; type: cell-based; conditions: for EC8 MIC: EC8 not defined; for MIC: Escherichia coli, ATCC25922, E. coli, read-out: MIC Ec
[3] = S. aureus, Alamar Blue read after overnight incubation at 35° C.
[4] = E. coli, Alamar Blue read after overnight incubation at 35° C.
[5] = Table 12, Z is C and connected to R4
[6] = Alamar Blue read after overnight incubation at 35° C.

SMILES	MIC Sa [1, 3]	MIC Ec [2, 4]	other results
CNc1cc(F)cc2c1[nH]c1nc(Oc3cnc(N4CCOCC4)nc3)nc(N3CCC4(CC4N)C3)c12 (stereo not drawn) [Compound 4.214]	≤0.5 µg/mL	2 µg/mL (≈ 3.96 µM)	
CNc1cc(F)cc2c1[nH]c1nc(Oc3cnc(CC(=O)N4CC(N(C)C)C4)nc3)nc(N3C[C@H](N)C4(CC4)C3)c12 [Compound 4.373]	2 µg/mL (≈ 3.57 µM)	8 µg/mL (≈ 14.3 µM)	
CNc1cc(F)cc2c1[nH]c1nc(Oc3cnc4ccnn4c3)nc(N3CC4(CCC4N)C3)c12 (stereo not drawn) [Compound 10.56]			MIC Sa ([1]; Table 18, Sa): ≤ 0.5 µg/mL; MIC Ec ([2]; Table 18, Ec): ≤ 0.5 µg/mL
CNc1cc(F)c2c3c1[nH]c1nc(Oc4cnc(N)nc4)nc(c13)-c1ccccc1NC2			SA MIC [1, 5]: ≤ 0.5 µg/mL; EC8 MIC [2, 5]: > 16 µg/mL
CNc1cccc2c1[nH]c1nc(Oc3cncnc3)cc(N3CC(N)C(O)C3)c12 (stereo not drawn) [Compound 3.8]			MIC [1, 6]: 16 µg/mL (≈ 40.9 µM); MIC [2, 6]: > 64 µg/mL
CNc1cc(F)cc2c1[nH]c1nc(Oc3cnc4ccc[n+]([O-])c4c3)nc(N3CC4(CCC4N)C3)c12 (stereo not drawn) [Compound 4.342]	≤0.5 µg/mL	4 µg/mL (≈ 8.22 µM)	
COc1cccc2c1[nH]c1nc(Oc3cccc(C#N)c3)nc(N3CC4C(N)C4C3)c12 (stereo not drawn) [Compound 2.12]	16 µg/mL (≈ 38.8 µM)	>64 µg/mL	
CNc1cccc2c1[nH]c1nc(Sc3cnc4ccc[n+]([O-])c4c3)nc(N3C[C@@H]4[C@@H](CN)[C@@H]4C3)c12 [Compound 1.18]			MIC [1, 6]: ≤ 0.5 µg/mL; MIC [2, 6]: 2 µg/mL (≈ 4.13 µM)
CNc1cccc2c1[nH]c1nc(Oc3cncnc3)nc(Oc3cncnc3)c12 [Compound 8.1]			MIC [1, 6]: 2 µg/mL (≈ 5.18 µM); MIC [2, 6]: > 64 µg/mL
CNc1cc(F)cc2c1[nH]c1nc(Oc3ccc4ccnn4c3)nc(N3C[C@H]4CCN[C@H]4C3)c12 [Compound 10.52]			MIC Sa ([1]; Table 18, Sa): ≤ 0.5 µg/mL; MIC Ec ([2]; Table 18, Ec): ≤ 0.5 µg/mL
CNc1cc(F)cc2c1[nH]c1nc(Oc3cnc(C)nc3)nc(N3CCC(F)(CN)CC3)c12 [Compound 4.159]	≤0.5 µg/mL	≤0.5 µg/mL	
CNc1cc(F)c(F)c2c1[nH]c1nc(Oc3cnc(C)nc3)nc(N3CC[C@]4(CC[C@H]4N)C3)c12 [Compound 10.92]			MIC Sa ([1]; Table 18, Sa): ≤ 0.5 µg/mL; MIC Ec ([2]; Table 18, Ec): ≤ 0.5 µg/mL
CNc1cccc2c1[nH]c1nc(Oc3cnc(C)nc3)cc(N3C[C@@H](NC)C4(CC4)C3)c12 [Compound 3.48]			MIC [1, 6]: 2 µg/mL (≈ 4.66 µM); MIC [2, 6]: 8 µg/mL (≈ 18.6 µM)
CNc1cccc2c1[nH]c1nc(Oc3cncc(C#N)c3)cc(N3CC[C@@H](N)C3)c12 [Compound 3.3]			MIC [1, 6]: 0.5 µg/mL (≈ 1.25 µM); MIC [2, 6]: 1 µg/mL (≈ 2.5 µM)
CNc1cc(F)cc2c1[nH]c1nc(Cc3cnc(C)nc3)nc(N3CC4C(N)C4C3)c12 (stereo not drawn) [drawing 1736]			SA MIC ([1]; Table 11, compounds wherein L = CH2): ≤ 0.5 µg/mL; EC8 MIC ([2]; Table 11, L = CH2): 0.25 µg/mL
CNc1cc(F)cc2c1[nH]c1nc(Oc3cnc4[nH]cnc4c3)nc(N3CC4C(N)C4C3)c12 (stereo not drawn) [Compound 4.311]	4 µg/mL (≈ 8.98 µM)	>16 µg/mL	
CNc1cc(F)cc2c1[nH]c1nc(Oc3cnc(NC4CC4)nc3)nc(N3CC4C(N)C4C3)c12 (stereo not drawn) [Compound 4.223]	≤0.5 µg/mL	≤0.5 µg/mL	
CNc1cc(F)cc2c1[nH]c1nc(Oc3cnc(N)nc3)nc(N3CC4CC(N)C4C3)c12 (stereo not drawn) [Compound 4.190]	≤0.5 µg/mL	1 µg/mL (≈ 2.3 µM)	
CNc1cc(F)cc2c1[nH]c1nc(Oc3cnc(C)nc3)nc(N3CC4CONC4C3)c12 (stereo not drawn) [Compound 4.122]	≤0.5 µg/mL	1 µg/mL (≈ 2.29 µM)	
CNc1cc(F)cc2c1[nH]c1nc(Oc3cnc(C4CCC4)nc3)nc(N3CC(N)C4(CC4)C3)c12 (stereo not drawn) [Compound 4.287]	≤0.5 µg/mL	≤0.5 µg/mL	
CNc1cc(F)cc2c1[nH]c1nc(Oc3cnc(C)nc3)nc(-c3cc(CN)ccc3F)c12 [Compound 4.446]			MIC [1, 6]: 2 µg/mL (≈ 4.47 µM); MIC [2, 6]: 8 µg/mL (≈ 17.9 µM)
CNc1cc(F)cc2c1[nH]c1nc(Oc3cnc(N4CCN(C(C)=O)CC4)nc3)nc(N3CC[C@@H](N)C3)c12 [Compound 4.229]	≤0.5 µg/mL	2 µg/mL (≈ 3.84 µM)	
CNc1cc(F)cc2c1[nH]c1nc(Nc3cnc4c(c3)nnn4C(C)C)nc(N3C[C@H]4C[C@@H]3C[C@H]4N)c12 [Compound 10.43]			MIC Sa ([1]; Table 18, Sa): ≤ 0.5 µg/mL; MIC Ec ([2]; Table 18, Ec): 1 µg/mL (≈ 1.99 µM)
CNc1cccc2c1[nH]c1nc(Oc3cnc(C)nc3)cc(N3CC[C@@H](N)C3)c12 [Compound 3.5]			MIC [1, 6]: 0.25 µg/mL (≈ 0.642 µM); MIC [2, 6]: ≤ 0.5 µg/mL

Now from value to molecule, other results behind:

MIC Sa [1, 3]	MIC Ec [2, 4]	SMILES	other results
≤0.5 µg/mL	8 µg/mL (≈ 19 µM)	CNc1cc(F)cc2c1[nH]c1nc(Oc3cnc(N)nc3)nc(N3CC4CNC4C3)c12 (stereo not drawn) [Compound 4.178]	
≤0.5 µg/mL	≤0.5 µg/mL	CNc1cc(F)cc2c1[nH]c1nc(Oc3cncc(F)c3)nc(N3CC4C(N)C4C3)c12 (stereo not drawn) [Compound 4.055]	
≤0.5 µg/mL	8 µg/mL (≈ 18.4 µM)	CNc1cc(F)cc2c1[nH]c1nc(Oc3cnc(N)nc3)nc(N3CC4C(CN)C4C3)c12 (stereo not drawn) [Compound 4.188]	
